# How the values were obtained:
# Assay type in all cases: cell-based
# D54 cells [1] = assay: D54 viability by trypan blue staining immediately after incubation in media or DEP buffer; settings: for viability in the DEP buffer: 6-hour incubation
# Method: (A) Schematic describes experimental paradigm to test D54 viability after incubation in cell culture media or DEP buffer. Adherent D54 cells were dissociated then resuspended in media or DEP buffer and incubated on ice or at room temperature (RT). Cell viability was tested immediately after incubation by trypan blue. Equivalent numbers of cells were plated per condition and adherent cells observed after 1-2 days by phase contrast microscopy to assess cell recovery. (B) Cell viability after 6-hour incubation remained high for all conditions. Viability of D54 cells in DEP buffer may be slightly lower than that of cells in media. N=1. (C) Phase-contrast images of D54 cells stained with trypan blue after 6-hour incubation show high cell viability and increased clustering of cells incubated in media at RT. (D) Phase contrast images of adherent D54 cells one day after 6-hour incubation in media or DEP buffer. Cells incubated in media at RT show the best recovery, indicated by cell number and cell morphology. (E) Phase contrast images of adherent D54 cells one day after 0-6 hour incubation in media or DEP buffer. Cell recovery decreases with increasing incubation time in DEP buffer.
# FIG. 2A-D presents optimization of buffer conditions for DEP-based sorting of GBM cells. (A) Viability of D54 cells immediately after 6-hour RT incubation in regular growth media, DEP buffer, or DEP buffer supplemented with 5 μM ROCKi was measured by trypan blue staining. […] (B) After 6-hour incubation in media or buffers, D54 cells were plated in normal growth conditions and the number of cells measured after 2 days by XTT assay. […] Acutely isolated cells (Media control, 0 h) served as a control. (D) D54 cells were plated after 6-hour incubation in buffers and after 1 day were exposed to TMZ to assess TMZ resistance. TMZ IC50 is shown as fold change relative to media control, 0 h, and no difference in TMZ resistance was detected across samples. Error bars show SD. […]
# (A) Viability of D54 cells immediately after 6-hour incubation in regular growth media, DEP buffer, or DEP buffer supplemented with 1, 5, or 10 μM ROCKi was measured by trypan blue staining. […]
# (§1) DEP buffer (DB): 8.5% w/v sucrose, 0.3% w/v glucose, 0.725% RPMI. […] (B) Cells were plated after incubation and the confluency (% culture surface area covered by cells) of adherent cells measured 1 day later using ImageJ. […]
# (§2) Assessing the viability of D54 cells in a DEP buffer used for sorting mouse and human neural stem and progenitor cells. […] Further, the effect of temperature of the buffer (ice or room temperature) on cell viability was also evaluated. […] After the 6-hour buffer incubation, the cells were plated under normal growth conditions and assessed by phase contrast imaging 1-2 days later to assess cell survival and growth. […]
# D54 cells [2] = assay: TMZ resistance (TMZ IC50 fold change) of cells plated after buffer incubation; settings: 5 μM ROCKi in DEP buffer; cells plated in normal growth medium without ROCKi
# Method: (§3) FIG. 2A-D presents optimization of buffer conditions for DEP-based sorting of GBM cells. (A) Viability of D54 cells immediately after 6-hour RT incubation in regular growth media, DEP buffer, or DEP buffer supplemented with 5 μM ROCKi was measured by trypan blue staining. […] (B) After 6-hour incubation in media or buffers, D54 cells were plated in normal growth conditions and the number of cells measured after 2 days by XTT assay. […] Acutely isolated cells (Media control, 0 h) served as a control. (D) D54 cells were plated after 6-hour incubation in buffers and after 1 day were exposed to TMZ to assess TMZ resistance. TMZ IC50 is shown as fold change relative to media control, 0 h, and no difference in TMZ resistance was detected across samples. Error bars show SD. N≥3, one-way ANOVA, Tukey post hoc for multiple comparisons, *p<0.05, **p<0.01, ***p<0.001, ****p<0.0001.
# (A) Viability of D54 cells immediately after 6-hour incubation in regular growth media, DEP buffer, or DEP buffer supplemented with 1, 5, or 10 μM ROCKi was measured by trypan blue staining. Acutely isolated cells (Media control, 0 h) served as a control. […] (C) There was no significant difference in the diameters of D54 cells in any of the conditions. (D) There was no significant difference in TMZ resistance as measured by fold change in IC50 relative to acutely isolated cells (Media control, 0 h). Error bars show SD. […]
# D54 cells [3] = assay: Recovery of adherent cells after buffer incubation and plating (phase contrast imaging, confluency by ImageJ); settings: 5 μM ROCKi in DEP buffer, 6 hours incubation, among DEP buffers, N=1
# Method: (A) Schematic describes experimental paradigm to test D54 viability after incubation in cell culture media or DEP buffer. Adherent D54 cells were dissociated then resuspended in media or DEP buffer and incubated on ice or at room temperature (RT). Cell viability was tested immediately after incubation by trypan blue. Equivalent numbers of cells were plated per condition and adherent cells observed after 1-2 days by phase contrast microscopy to assess cell recovery. (B) Cell viability after 6-hour incubation remained high for all conditions. Viability of D54 cells in DEP buffer may be slightly lower than that of cells in media. N=1. […]
# as §1, §2
# D54 cells [4] = assay: XTT assay of cell numbers after plating and growth for 2 days; settings: 5 μM ROCKi in DEP buffer vs DEP buffer without ROCKi, 6-hour incubation
# Method: as §3
# D54 cell viability studies conducted with a modified DEP buffer that included ROCKi. ROCK inhibitor (ROCKi) was included in the DEP buffer at concentrations ranging from 1-10 μM. […] Addition of 5 μM ROCKi to the DEP buffer improved D54 acute viability, as assessed by trypan blue staining, and led to greater than 90% viable cells (see FIG. 2A). An XTT assay was used to measure cell numbers after plating and growth for 2 days.
compound,measurement,setting,value
"C[C@@H](N)[C@H]1CC[C@H](C(=O)Nc2ccncc2)CC1 [ROCKi, Y27632]",viability in the DEP buffer,D54 cells [1]; 1 μM ROCKi in DEP buffer,improved viability
same,"viable cells (acute viability, trypan blue)","D54 cells [1]; 5 μM ROCKi in DEP buffer, 6-hour RT incubation",greater than 90%
same,viability in the DEP buffer,D54 cells [1]; 5 μM ROCKi in DEP buffer,improved viability
same,best concentration for D54 cell viability,D54 cells [1]; ROCKi in DEP buffer at 1-10 μM,5 µM
same,TMZ resistance (fold change in TMZ IC50),D54 cells [2],did not alter TMZ resistance
same,confluency of adherent cells 1 day after plating,D54 cells [3],the most confluency
same,cell numbers after plating and growth for 2 days (XTT),D54 cells [4],significantly increased cell numbers

# From patent US20240033737A1, “DEVICES AND METHODS FOR CONTINUOUS DIELECTROPHORESIS CELL SORTING TO ISOLATE DIFFERENT POPULATIONS OF CELLS, AND APPLICATIONS THEREOF” (The Regents of the University of California, priority 2022, published 2024)
